Test results from PubChem BioAssay (NCI).
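Briefly, cells in 96-well plates were exposed to five compound concentrations for 48 h, and endpoints were estimated by linear interpolation. Here, GI50 denotes the concentration required for 50% inhibition of growth. Definition used: TGI = concentration required for complete inhibition of growth.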

Key:
Test in all cases: DTP human tumour cell line panel, 48 h
SNB-75 CNS = system: SNB-75 CNS
RPMI-8226 leukemia = system: RPMI-8226 leukemia
NCI/ADR-RES ovarian = system: NCI/ADR-RES ovarian
A549 NSCLC = system: A549 NSCLC
EKVX NSCLC = system: EKVX NSCLC
ACHN renal = system: ACHN renal
K-562 leukemia = system: K-562 leukemia
SF-539 CNS = system: SF-539 CNS
HT29 colon = system: HT29 colon
SF-295 CNS = system: SF-295 CNS
MCF7 breast = system: MCF7 breast
DU-145 prostate = system: DU-145 prostate
SK-MEL-28 melanoma = system: SK-MEL-28 melanoma
MALME-3M melanoma = system: MALME-3M melanoma
SW-620 colon = system: SW-620 colon
SK-OV-3 ovarian = system: SK-OV-3 ovarian
HCT-116 colon = system: HCT-116 colon
CCRF-CEM leukemia = system: CCRF-CEM leukemia
HOP-62 NSCLC = system: HOP-62 NSCLC
SF-268 CNS = system: SF-268 CNS
NCI-H460 lung = system: NCI-H460 lung
IGROV1 ovarian = system: IGROV1 ovarian
HOP-92 NSCLC = system: HOP-92 NSCLC
SR leukemia = system: SR leukemia
OVCAR-8 ovarian = system: OVCAR-8 ovarian
RXF 393 renal = system: RXF 393 renal
HCC-2998 colon = system: HCC-2998 colon
HS 578T breast = system: HS 578T breast
U251 CNS = system: U251 CNS
OVCAR-4 ovarian = system: OVCAR-4 ovarian
SK-MEL-5 melanoma = system: SK-MEL-5 melanoma
SNB-19 CNS = system: SNB-19 CNS
LOX IMVI melanoma = system: LOX IMVI melanoma
OVCAR-3 ovarian = system: OVCAR-3 ovarian
M14 melanoma = system: M14 melanoma
SN12C renal = system: SN12C renal
COLO 205 colon = system: COLO 205 colon
HL-60(TB) leukemia = system: HL-60(TB) leukemia
786-0 renal = system: 786-0 renal
NCI-H226 lung = system: NCI-H226 lung
TK-10 renal = system: TK-10 renal
T-47D breast = system: T-47D breast
UACC-257 melanoma = system: UACC-257 melanoma
KM12 colon = system: KM12 colon
A498 renal = system: A498 renal
MDA-MB-435 = system: MDA-MB-435
HCT-15 colon = system: HCT-15 colon
OVCAR-5 ovarian = system: OVCAR-5 ovarian
PC-3 prostate = system: PC-3 prostate
MDA-MB-231 breast = system: MDA-MB-231 breast
NCI-H23 lung = system: NCI-H23 lung
MOLT-4 leukemia = system: MOLT-4 leukemia
SK-MEL-2 melanoma = system: SK-MEL-2 melanoma
UACC-62 melanoma = system: UACC-62 melanoma
BT-549 breast = system: BT-549 breast
CAKI-1 renal = system: CAKI-1 renal

## CC(C)(C)c1ccc(C(=O)Nc2sc3c(c2C(N)=O)CC/C(=N\O)C3)cc1
SNB-75 CNS
  GI50: 3.65 µM
  TGI: 14.9 µM
RPMI-8226 leukemia
  GI50: 1040 nM
  TGI: 4.92 µM
NCI/ADR-RES ovarian
  GI50: 2870 nM
  TGI: 18.6 µM
A549 NSCLC
  GI50: 3.44 µM
  TGI: 56.6 µM
EKVX NSCLC
  GI50: 3.77 µM
  TGI: 19.2 µM
ACHN renal
  GI50: 1550 nM
  TGI: 9.21 µM
K-562 leukemia
  GI50: 597 nM
  TGI: 5.82 µM
SF-539 CNS
  GI50: 2390 nM
  TGI: 6.39 µM
HT29 colon
  GI50: 2680 nM
  TGI: 19.9 µM
SF-295 CNS
  GI50: 3.96 µM
  TGI: 14.8 µM
MCF7 breast
  GI50: 2680 nM
  TGI: 43.1 µM
DU-145 prostate
  GI50: 4.21 µM
  TGI: 16.7 µM
SK-MEL-28 melanoma
  GI50: 3.47 µM
  TGI: 12.4 µM
MALME-3M melanoma
  GI50: 2360 nM
  TGI: 6.53 µM
SW-620 colon
  GI50: 1930 nM
  TGI: 17.4 µM
SK-OV-3 ovarian
  GI50: 3.53 µM
  TGI: 19.2 µM
HCT-116 colon
  GI50: 1500 nM
  TGI: 12.6 µM
CCRF-CEM leukemia
  GI50: 505 nM
  TGI: 9.71 µM
HOP-62 NSCLC
  GI50: 4.91 µM
  TGI: 20.8 µM
SF-268 CNS
  GI50: 5.38 µM
  TGI: 24.7 µM
NCI-H460 lung
  GI50: 3.06 µM
  TGI: 10.1 µM
IGROV1 ovarian
  GI50: 3.55 µM
  TGI: 32 µM
HOP-92 NSCLC
  GI50: 2430 nM
  TGI: 6.86 µM
SR leukemia
  GI50: 1360 nM
  TGI: 6.36 µM
OVCAR-8 ovarian
  GI50: 3.88 µM
  TGI: 20.2 µM
RXF 393 renal
  GI50: 544 nM
  TGI: 3.11 µM
HCC-2998 colon
  GI50: 4.79 µM
  TGI: 22.3 µM
HS 578T breast
  GI50: 4.66 µM
  TGI: 58 µM
U251 CNS
  GI50: 3.66 µM
  TGI: 28.2 µM
OVCAR-4 ovarian
  GI50: 1120 nM
  TGI: 14.2 µM
SK-MEL-5 melanoma
  GI50: 2000 nM
  TGI: 4.21 µM
SNB-19 CNS
  GI50: 4.18 µM
  TGI: 18.4 µM
LOX IMVI melanoma
  GI50: 1610 nM
  TGI: 4.35 µM
OVCAR-3 ovarian
  GI50: 3.18 µM
  TGI: 13.6 µM
M14 melanoma
  GI50: 2830 nM
  TGI: 14.2 µM
SN12C renal
  GI50: 3.2 µM
  TGI: 12.2 µM
COLO 205 colon
  GI50: 3.39 µM
  TGI: 15.7 µM
HL-60(TB) leukemia
  GI50: 675 nM
  TGI: 5.64 µM
786-0 renal
  GI50: 3.81 µM
  TGI: 23 µM
NCI-H226 lung
  GI50: 2360 nM
  TGI: 9.9 µM
TK-10 renal
  GI50: 5.81 µM
  TGI: 53.9 µM
T-47D breast
  GI50: 739 nM
  TGI: 8.06 µM
UACC-257 melanoma
  GI50: 3.27 µM
  TGI: 11.7 µM
KM12 colon
  GI50: 2850 nM
  TGI: 13.5 µM
A498 renal
  GI50: 2090 nM
  TGI: 8.85 µM
MDA-MB-435
  GI50: 3.01 µM
  TGI: 10.2 µM
HCT-15 colon
  GI50: 1480 nM
  TGI: 14.5 µM
OVCAR-5 ovarian
  GI50: 3.43 µM
  TGI: 14.3 µM
PC-3 prostate
  GI50: 1310 nM
  TGI: 18.6 µM
MDA-MB-231 breast
  GI50: 3.04 µM
  TGI: 9.11 µM
NCI-H23 lung
  GI50: 2510 nM
  TGI: 13.4 µM
MOLT-4 leukemia
  GI50: 2090 nM
  TGI: 10.6 µM
SK-MEL-2 melanoma
  GI50: 2690 nM
  TGI: 7.01 µM
UACC-62 melanoma
  GI50: 1950 nM
  TGI: 8.99 µM
BT-549 breast
  GI50: 1060 nM
  TGI: 8.1 µM
CAKI-1 renal
  GI50: 756 nM
  TGI: 10.6 µM
